{"source": "patent US6787530B1", "about": "“Use of pregnane-diones as analgesic agents” (priority 1996, dated 2004)", "key": {"rats [1]": {"tested_on": "rats", "experiment": "Loss of righting reflex and loss of coordination in the rotarod test after intraperitoneal dosing", "source_text": "(§1) Groups of 10 rats were examined for the duration of the loss of righting reflex and loss of coordination in the rotarod test and also for antinociceptive effects in the electrical current threshold test measured in the tail. […] Thus we were able to compare the duration of sedation and anaesthesia and quantity of antinociception following intraperitoneal administration of the neurosteroid mixture and also following the components of the mixture at the doses which were given when the combination was used.\nWe have gone on to test the ability for alphadolone to produce sedation. We have given doses up to […] intraperitoneally of alphadolone."}, "rats [2]": {"tested_on": "rats", "experiment": "Sedation scoring (righting reflex, locomotion) after intravenous injection", "format": "in vivo, rat", "source_text": "It is generally accepted in the literature that both alphaxalone and alphadolone are intravenous anaesthetics, i.e. when they are given intravenously, they produce sedation and unconsciousness to a level sufficient for surgery. […] Such data, although alluded to in the literature, is not stated clearly with scientific evidence. Thus, we performed the experiments described in Example 2. Rats were given an intravenous injection of alphadolone. All of the rats became unconscious and surgically anaesthetised within 5 seconds of the intravenous injection. […] Thus, it can be concluded that intravenous injection of alphadolone produces unconsciousness.\nFour rats (wt 100 g) were given 0.25 ml injections of alphadolone solution (10 mg/ml; dissolved in 10% Cremophor EL), into the lateral tail vein. A stopwatch was used to time the following scoring of sedation every 15 seconds:\n1—righting reflex but no spontaneous locomotion\n2—spontaneous locomotion but uncoordinated\n3—normal locomotion and exploratory behaviour: full recovery\nThey all recovered fully within 90 seconds of the drug administration."}, "[3]": {"conditions": "Glaxo in-house experiments; cited from earlier work"}, "Wistar rat": {"tested_on": "Wistar rat", "experiment": "Electrical current threshold for pain (ECT) in the tail after intragastric dosing, pilot experiment", "format": "in vivo", "conditions": "150 mg suspended in 1% Cremophor EL, 99% saline, intragastrically; one rat approx. 200 g", "experimental": "We performed a pilot experiment on one drug naive nale Wistar rat that weighed approximately 200 g. We measured the nociceptive (pain) threshold in the tail using electrical current as the noxious stimulus. We measured the electrical current threshold for pain (ECT) in the tail every five minutes until the readings stabilised. We then gave 150 mg alphadolone acetate suspended in 1% Cremophor EL, 99% saline, intragastrically."}, "mice": {"tested_on": "mice", "experiment": "PAN LABS toxicity test", "format": "in vivo, mouse", "experimental": "The experiments from our laboratory are supported by observations by an independent body, PAN LABS. A sample of alphadolone used in the above experiments in rats in our laboratory was sent to a commercial drug-testing house, called PAN LABS. They gave the drug to a number of preparations to look for toxicity effects as well as pharmacological effect. In one toxicity test performed at PAN LABS, doses of up to 300 mg per kg of alphadolone was given to mice."}, "[4]": {"tested_on": "spinal cord GABAA receptors", "format": "in vivo, rat", "source_text": "as §1\nRats were given a range of doses of alphadolone from 0.1 to 100 mg/kg intraperitoneally. The antinociceptive effect was measured using electrical current in the tail."}, "[5]": {"tested_on": "patients scheduled for knee reconstruction surgery", "experiment": "Phase 1 study of oral alphadolone: side effects (sedation, nausea, respiratory depression, disorientation)", "format": "in vivo, human", "experimental": "The study consisted of two phases. The first phase was a dose escalation study. At any time during this phase as well as the second phase, if the patient was randomised to receive placebo then a capsule containing lactose was administered orally at the time of medication. If the patient was randomised to receive alphadolone then the first patient so randomised received 25 mg alphadolone acetate orally. The patient was monitored for efficacy of the medication and side effects. If there were no unacceptable side effects such as respiratory depression or severe sedation or disorientation then the next patient randomised to receive the active treatment received a higher dose. The dose escalation planned was in the order, 25, 50, 100, 250, 500 and 1000 mg. The original plan was to continue dose escalation until unacceptable side effects occurred and then to reduce the dose to go onto the next, second, phase of the study, a double-blind comparison of the dose just below the high dose that produced unacceptable side effects compared with placebo. However, the view of the Ethics Committee was that this was more appropriate to a drug company sponsored trial and they ordered that the trial should switch from the dose escalation phase to the comparison phase when there was clear evidence of efficacy.\nNo premedication was given. The patients were taken to the operating theatre and subjected to a standardised anaesthetic regime that consisted of a propofol induction followed by a propofol infusion and the muscle relaxant of the anaesthetist's preference The trachea was intubated and lungs ventilated with a mixture of nitrous oxide and oxygen. Morphine 1-2 mg intravenously was given as indicated by normal signs of depth of anaesthesia. The amount of morphine used in the operating theatre was recorded in the case record form. After the end of surgery, the muscle relaxant was reversed with atropine and neostigmine and the patient sent to recovery. In the recovery ward the patient was reintroduced to the patient controlled analgesia machine containing morphine to deliver a dose of 1 mg increments with a lock out time of 5 minutes. The patient spent approximately half an hour in recovery ward and was then sent to the ward. The following observations and measurements were made one hour before, half an hour before, and just before giving the test medication (placebo or alphadolone) orally with 100 ml of water. The observations were continued every half hour thereafter until six hours after the capsule had been given:\nSedation on a four point score none, mild, moderate, unseasonable;\nNausea score rating none, mild, moderate, severe vomiting;\nRespiratory depression scores as\nnone—respiratory rate greater than 10 oxygen saturation greater than 95%\nmild—respiratory rate great than 6 and less than 10 oxygen saturation greater than 95%\nmoderate—respiratory rate less than 6 but oxygen saturation greater than 95%\nunreasonable—respiratory rate less than 6 and/or oxygen saturation less than 95%\nLight-headedness scored from none (no dizziness), mild (light dizziness but no nystagmus), moderate (feels dizzy and has nystagmus), severe (very dizzy with nausea);\nSlurred speech scored as none, mild, moderate, severe;\nPresence of disorientation;\nGaze evoked nystagmus scored as none, mild (1-2 jerks), moderate (constant slow jerks), severe (fast jerks and feeling dizzy);\nLack of co-ordination with two tests (a) close eyes touch nose with finger (b) touch 1, 2, 3, 4 fingers in turn with thumb; classified as none (both tests accomplished), mild (both tests accomplished but slowly), moderate (one test achieved after two attempts), severe (failed both tests after two attempts at each).\nThe total number of 0's, 1's, 2's, 3's and 4's recorded during the six hours after capsule administration were totalled for the five placebo treated and seven alphadolone treated patients and entered into a contingency table (table 2)."}, "[6]": {"conditions": "0.1 to 100 mg/kg intraperitoneally, rats"}, "[7]": {"conditions": "ip, Saffan 2 ml/kg, alphaxalone 18 mg/kg, alphadolone 6 mg/kg, groups of 10 rats"}, "[8]": {"conditions": "six hours after capsule, 100, 250 and 500 mg orally, n = 7"}}, "note": "“Also recorded” adds a separate entry of the source."}
{"smiles": "CC(=O)OCC(=O)[C@H]1CC[C@H]2[C@@H]3CC[C@H]4C[C@H](O)CC[C@]4(C)[C@H]3C(=O)C[C@]12C", "note": "[alphadolone, 21-acetoxy-3alpha-hydroxy-5alpha-pregnane-11,20-dione]", "values": [{"measurement": "sedative effects", "setting": "rats [1]; [6]", "value": "No sedative effects were observed"}, {"measurement": "sedation, loss of coordination, abnormal behaviour", "setting": "rats [1]; doses up to 300 mg/kg intraperitoneally (b128 prints 300 mg/g), rats", "value": "no sedative effects whatsoever; also recorded: no evidence of sedation or loss of coordination"}, {"measurement": "sedation and anaesthesia (loss of righting reflex, loss of coordination in rotarod test)", "setting": "rats [1]; [7]", "value": "no sedation or loss of righting reflex"}, {"measurement": "righting reflex / sedation", "setting": "rats [2]; 25 mg/kg intravenous (lateral tail vein), 10% Cremophor EL, four rats", "value": "lost the righting reflex and were heavily sedated"}, {"measurement": "time to full recovery after drug administration", "setting": "rats [2]; 25 mg/kg intravenous, four rats", "value": "≤ 90", "unit": "s"}, {"measurement": "time to unconsciousness and surgical anaesthesia after intravenous injection", "setting": "rats [2]; intravenous injection, rats", "value": "≤ 5", "unit": "s"}, {"measurement": "intravenous anaesthetic potency relative to alphaxolone", "setting": "[3]", "value": "one-third the potency"}, {"measurement": "electrical current threshold for pain (ECT) in the tail", "setting": "Wistar rat", "value": "significant rise in tail pain thresholds"}, {"measurement": "grip strength", "setting": "mice; 300 mg/kg, mice", "value": "mild decrease in grip strength; also recorded: slight decrease in grip strength"}, {"measurement": "anaesthesia", "setting": "mice; doses of up to 300 mg per kg given to mice", "value": "did not produce anaesthesia"}, {"measurement": "dose response of antinociceptive effect (electrical current in the tail)", "setting": "[4]; [6]", "value": "dose-related increase in antinociceptive effect"}, {"measurement": "antinociceptive effects in the electrical current threshold test measured in the tail", "setting": "[4]; [7]", "value": "all of the antinociceptive effects of the Saffan mixture could be achieved with alphadolone alone"}, {"measurement": "side effects: sedation, nausea, disorientation, respiratory depression", "setting": "[5]; dose escalation, 25 to 500 mg orally, humans", "value": "No sedation, nausea or disorientation or respiratory depression; also recorded: well tolerated up to a dose of 500 mg orally; also recorded: no sedation or disorientation whatsoever"}, {"measurement": "nausea score and sedation score compared with placebo (chi-square)", "setting": "[5]; n = 7 vs placebo n = 5, P=0.9459 nausea, P=0.8661 sedation", "value": "no significant difference"}, {"measurement": "Nausea score 0 (none), number of scores", "setting": "[5]; [8]", "value": 72}, {"measurement": "Nausea score 1 (mild), number of scores", "setting": "[5]; [8]", "value": 10}, {"measurement": "Nausea score 2 (moderate), number of scores", "setting": "[5]; [8]", "value": 1}, {"measurement": "Sedation score 0 (none), number of scores", "setting": "[5]; [8]", "value": 20}, {"measurement": "Sedation score 1 (mild), number of scores", "setting": "[5]; [8]", "value": 48}, {"measurement": "Sedation score 2 (moderate), number of scores", "setting": "[5]; [8]", "value": 15}]}
